Square brackets hold non-standard residues; d marks the D form.
What was measured:
MCF-7/6 cells = assay: Cytotoxicity test (WST-1 cell viability); format: cell-based, human; details: read-out: IC50 (50% inhibiting concentration), 48 hours incubation + 24 hours drug-free post-incubation
Description: The cytotoxicity tests of doxorubicin and derivatives were carried out with MCF-7/6 cells and LNCaP cells.
The cells were collected by trypsinization, counted, and then inoculated in 96-well plates in 200 μl of serum-containing medium.
The cells were incubated for 24 hours at 37° C. before the addition of the products to be tested:
diluted to various concentrations in the serum-containing culture medium. After an incubation of 48 hours in the presence of various compounds, the cells were finally post-incubated at 37° C. for 24 hours in the presence of drug-free serum-containing medium. After this incubation period, a cell viability test was carried out (WST-1, Roche Molecular Biochemical, Mannheim, Germany).
They were then post-incubated for 24 hours in drug-free serum containing medium. The cytotoxicity of the products was estimated by a cell viability test (WST-1, Roche Molecular Diagnostic, Mannheim, Germany).

[1] = system: HCT-116 human colon carcinoma xenograft; assay: Chemotherapy study in HCT-116 human colon carcinoma xenograft model; format: in vivo, mice
Source text: The anti-tumor efficacy of PEG2000-(DSer)4-ALAL-Dox was compared to that of succinyl-βALAL-Dox in an HCT-116 human colon carcinoma xenograft model that was implanted subcutaneously in Swiss nude/nude mice. The animals received 5 i.v. bolus injections (for 5 consecutive days) of succinyl-βALAL-Dox at 30 μmol/kg or PEG2000-(DSer)4-ALAL-Dox at 53 and 110 μmol/kg (6 mice/group). […] The results of FIG. 8 show the variations of the body weight of the animals. […] The anti-tumor efficacy is shown by the T/C curve that comprises two phases (FIG. 9). […] In the second phase, the activity of the PEGylated derivative (110 μmol/kg) decreased relative to that of succinyl-PALAL-Dox. […] The MTD of the PEGylated derivative was not reached in this study.
The anti-tumor efficacy of PEG2000-(DSer)4-ALAL-Dox was compared to that of PEG2000-ALAL-Dox in an HCT-116 human colon carcinoma xenograft model implanted subcutaneously in Swiss nude/nude mice. The animals received 5 i.v. bolus injections (for 5 consecutive days) of the compounds at doses of 200, 300, and 400 μmol/kg (5 mice/group). Contrary to PEG2000-ALAL-Dox, PEG2000-(DSer)4-ALAL-Dox was toxic at 300 and 400 μmol/kg and induced a weight loss and the death of the animals (FIG. 10).

[2] = system: LS-174T human tumor xenografts; assay: Efficacy study in LS-174T human colon carcinoma xenograft model; details: for T/C min / specific growth delay (SGD): LS-174T, Suc-beta-ALAL-Dox 50 μmol/kg, PEG2000-(DSer)4-ALAL-Dox 1×50+3×35 μmol/kg, i.v. days 0, 7, 14, 21; for body weight loss: as of the second week of weekly i.v. treatment
Description: The experimental chemotherapy studies were carried out on athymic mice that carried LS-174T or HCT 116 (colon carcinomas) tumors of human origin previously grafted subcutaneously.
The mice were selected and distributed into the different groups of the study so as to have equal distributions of tumor volumes. The different treatments were randomly assigned to the groups so formed.
Treatments were administered intravenously in the caudal vein. During these injections, the animals received a constant volume of 10 μl/g of product (Workman et al., 1998). After the injection, the clinical signs were duly followed (each hour during the first day, and daily until the end of the study), as well as the weight that was measured at the same time as the tumor volume (mm^3). The growth of the tumor was monitored 2× per week by measuring, with the aid of a caliper, two perpendicular diameters (or “diagonals”) of the tumor (the largest and the smallest “diagonal”).
To determine the variations of the tumor volume of the different groups, the median of the relative tumor volumes (RTV for “relative tumor volume”) that express in percent the variations of the medians of the tumor volumes relative to day 0 was calculated. To estimate the effect of the various treatments, the inhibition of the growth was determined by calculating the ratio between the median of the RTV of the treated groups (T) and that of control group (C) that is expressed by percentage (T/C(%)).
The lowest value of the T/C ratio was used as a parameter to estimate the maximum efficacy of the products that were evaluated.
The Specific Growth Delay (SGD) was also calculated as (DTtreated−DTcontrol)/(DTcontrol).
For these reasons, growth delays (T-C) and specific growth delays (SGD) were calculated from linear regressions of different phases that characterize the growth of the tumors.
The products were injected intravenously (10 μl/g, 6 mice per group).
The administered doses were reduced starting from day 7.

[3] = system: LS-174T human colon cancer xenografts; assay: In vivo tumor reactivation of PEGylated prodrug derivatives (Dox and Leu-Dox accumulated in tumor); details: i.v. bolus 69 μmol/kg, LS-174T tumor
[4] = 37° C.
Description: The samples were incubated at 37° C. An extraction (for extraction method with acetonitrile, see Item 7.3 below) of each product was carried out in triplicate at time 0 and after 1, 2, 4 and 6 hours of incubation.
10 μl of internal standard (prolyl-daunorubicin) and […] 150 μl of acetonitrile were added into tubes containing 50 μl of the sample to be extracted. The tubes were stirred and centrifuged for 10 minutes to 13000 g. The supernatant was diluted 4 times in a formate buffer, pH 4, centrifuged, then analyzed by HPLC (see Item 7.3 below).
At different time points, the concentrations of the conjugates and possible metabolites formed were evaluated by HPLC. FIG. 7 illustrates the variations of the concentration of products based on the incubation time.

[5] = 1×50+3×35 μmol/kg vs doxorubicin 6.69 μmol/kg

Compound “PEG2000-(DSer)4-beta-Ala-Leu-Ala-Leu-doxorubicin [PEG2000-(DSer)4-beta-ALAL-Dox]” has an IC50 (MCF-7/6 cells) of 251 µM.

With `COc1cccc2c1C(=O)c1c(O)c3c(c(O)c1C2=O)CC(O)(C(=O)CO)CC3OC1CC(NC(=O)C(CC(C)C)NC(=O)C(C)NC(=O)C(CC(C)C)NC(=O)CCNC(=O)CCC(=O)O)C(O)C(C)O1` (stereo not drawn) [Suc-beta-ALAL-Dox, succinyl-beta-Ala-Leu-Ala-Leu-doxorubicin, reference compound] the body weight loss ([1]; 30 μmol/kg ×5 i.v., end of the study, day 49) was “about 20%”, the T/C min [2] was 26.6% and the “specific growth delay (SGD)” value [2] was 3.02. The body weight loss [2] was “slight weight loss”, the maximum weight loss ([2]; day 32, 45 and 50 μmol/kg groups) was 10% and the “DOX concentration in tumor” value ([3]; 2 hours after injection) was 1.93 nmol/mg. The “Leu-DOX concentration in tumor” value ([3]; 2 hours after injection) was 4.64 nmol/mg, the “DOX concentration in tumor” value ([3]; 72 hours after injection) was 5.41 nmol/mg and the “Leu-DOX concentration in tumor” value ([3]; 72 hours after injection) was 0.05 nmol/mg.

With `COc1cccc2c1C(=O)c1c(O)c3c(c(O)c1C2=O)C[C@@](O)(C(=O)CO)C[C@@H]3O[C@H]1C[C@H](N)[C@H](O)[C@H](C)O1` [doxorubicin, reference compound] the body weight loss [2] was “no significant weight loss”.

For `COc1cccc2c1C(=O)c1c(O)c3c(c(O)c1C2=O)CC(O)(C(=O)CO)CC3OC1CC(NC(=O)C(CC(C)C)NC(=O)C(C)NC(=O)C(CC(C)C)NC(=O)C(C)N)C(O)C(C)O1` (stereo not drawn) [ALAL-Dox, Ala-Leu-Ala-Leu-doxorubicin, reference compound], the stability in blood ([4]; 20 μM in citrated human blood) was “not stable in blood” and the “starting product degraded in Leu-Dox and Dox” value ([4]; after 1 hour, whole human blood) was 80%.

Compound “PEG2000-beta-Ala-Leu-Ala-Leu-doxorubicin [PEG2000-beta-ALAL-Dox]” has an IC50 (MCF-7/6 cells) greater than 500 µM.

For “PEG2000-(DSer)4-Ala-Leu-Ala-Leu-doxorubicin (PEG2000-[dS][dS][dS][dS]ALAL-doxorubicin) [PEG2000-(DSer)4-ALAL-Dox]”, the “hydrolysis: Dox formed” value ([4]; at 6 hours, whole human blood) was 5%, the “hydrolysis: L-Dox (Leu-Dox) formed” value ([4]; at 6 hours, whole human blood) was 5% and the anti-tumor effect ([1]; 53 μmol/kg ×5 i.v.) was “induced a tumor regression for the week of treatment”. The toxicity ([1]; 53 and 110 μmol/kg, 5 i.v. bolus injections) was “no toxicity”, the “toxicity (weight loss and death of the animals)” value ([1]; 300 and 400 μmol/kg, 5 i.v. bolus injections on 5 consecutive days) was “toxic” and the anti-tumor efficacy ([1]; equimolar non-toxic dose 200 μmol/kg ×5 i.v.) was “better anti-tumor efficacy than that of PEG2000-ALAL-Dox”. For the same compound, the “maximum tolerated dose (MTD)” value ([1]; up to 110 μmol/kg ×5 i.v.) was “not reached”, the “activity during the first growth phase” value [2, 5] was “comparable to that of doxorubicin” and the “activity during the second growth phase” value [2, 5] was “more active than doxorubicin and as active as Suc-beta-ALAL-Dox”. For the same compound, the T/C min [2] was 38%, the “specific growth delay (SGD)” value [2] was 1,58 and the body weight loss [2] was “no significant weight loss”. The deaths ([2]; initial i.v. bolus at 50 μmol/kg and 45 μmol/kg, 6 mice per group) was “One death”.

From patent US20060281897A1, “Potentialization of the activation of high molecular weight prodrugs” (priority 2003, published 2006)
